Laboratory results reported in patent US9896441B2 (Lycera Corporation, priority 2014, dated 2018).

What was measured:
RORγ-LBD = target: T1, RORγ-LBD (Homo sapiens, UniProt P51449); assay: RORγ-Ligand Binding Domain (LBD) TR-FRET Assay; format: biochemical; conditions: for TR-FRET Assay Max Response: maximum response;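 for TR-FRET Assay Max Response: 665/615 nm signal ratio set to 100 without ursolic acid or test compound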
T1 construct: made in house; host or cells: SF9 cells (baculovirus); used as diluted lysate
T1 sequence (P51449 269-508 limits assumed): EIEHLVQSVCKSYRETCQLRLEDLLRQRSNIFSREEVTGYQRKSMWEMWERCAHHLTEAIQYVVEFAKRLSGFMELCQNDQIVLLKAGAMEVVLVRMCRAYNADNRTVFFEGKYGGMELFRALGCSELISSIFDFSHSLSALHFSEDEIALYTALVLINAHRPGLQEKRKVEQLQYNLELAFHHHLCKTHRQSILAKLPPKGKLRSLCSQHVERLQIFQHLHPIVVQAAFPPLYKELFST
How it was run: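 Lysate from SF9 cells expressing His-RORγ-LBD is diluted to about 3 nM final in 50 mM Tris pH 7.0 assay buffer. A biotin-tagged SRC1 LXXLL peptide goes in at 200 nM final, plus ursolic acid at 2 μM final. Test compounds carry 1% DMSO final; signal read by TR-FRET.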

Gal4-RORγ-LBD = target: T2, Gal4-RORγ-LBD (Homo sapiens, UniProt P51449); assay: Gal4-RORγ Luciferase Reporter Assay in HEK-293T Cells; format: cell-based; conditions: HEK-293 cells; for Gal4-RORγ Assay Max Response: maximum response
T2 construct: expressed in transfected cells
T2 sequence (P51449 269-508 limits assumed): T1 sequence (P51449 269-508 limits assumed)
How it was run: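 Max Response was taken as the upper plateau of a 4-parameter logistic fit of luciferase signal, normalized to 100 for wells without ursolic acid or compound. Transiently Gal4-RORγ-LBD/Gal4-luc transfected HEK-293 cells carrying […] ursolic acid were incubated with test compounds (0.2% DMSO) overnight at 37 °C and read with One-Glo.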

[1] = luciferase reporter, in presence of ursolic acid
[2] = luciferase reporter, with ursolic acid
[3] = with 2 μM ursolic acid (RORγ antagonist), highest test concentration 10 μM
[4] = ursolic acid present, luciferase readout

Row | Compound | EC50 (RORγ-LBD; RORγ-LBD TR-FRET) [nM] | EC50 (Gal4-RORγ-LBD; [2]) [nM] | also measured
1 | C/C(=C\c1ccc2c(c1)N(S(=O)(=O)c1cc(C(F)(F)F)cnc1OCCO)C[C@H](CCC(=O)N1CCC(C(=O)O)CC1)O2)c1c(F)cccc1Cl [Example 129K, (S,E)-1-(3-(6-(2-(2-chloro-6-fluorophenyl)-prop-1-en-1-yl)-4-((2-(2-hydroxyethoxy)-5-(trifluoromethyl)pyridin-3-yl)sulfonyl)-3,4-dihydro-2H-benzo[b][1,4]oxazin-2-yl)propanoyl)piperidine-4-carboxylic acid] |  |  | EC50 (RORγ-LBD; RORγ-LBD TR-FRET assay): < 500 nM; TR-FRET Assay Max Response (RORγ-LBD; RORγ-LBD TR-FRET assay): *** (a value in the range of greater than 150 to 200); EC50 (Gal4-RORγ-LBD; [1]): 500 to 5000 nM; Gal4-RORγ Assay Max Response (Gal4-RORγ-LBD; [1]): ** (a value in the range of greater than 90 to 150)
2 | CC/C(=C\c1ccc2c(c1)N(S(=O)(=O)c1cccc(C(F)(F)F)c1)C[C@H](CCC(=O)OC)O2)c1ccccc1Cl [Example 35, Methyl (S,E)-3-(6-(2-(2-chlorophenyl)but-1-en-1-yl)-4-((3-(trifluoromethyl)phenyl)sulfonyl)-3,4-dihydro-2H-benzo[b][1,4]oxazin-2-yl)propanoate] | < 500 | 500 to 5000 | 
3 | COC(=O)CC[C@H]1CN(S(=O)(=O)c2cccc(C(F)(F)F)c2)c2cc(/C=C/c3c(OC)cccc3C(F)(F)F)ccc2O1 [Example 89ES, methyl (S,E)-3-(6-(2-methoxy-6-(trifluoromethyl)styryl)-4-((3-(trifluoromethyl)phenyl)-sulfonyl)-3,4-dihydro-2H-benzo[b][1,4]oxazin-2-yl)propanoate] | < 500 | 500 to 5000 | 
4 | COC(=O)CC[C@H]1CN(S(=O)(=O)c2c(Cl)nc3sccn23)c2cc(/C=C(\C)c3c(F)cccc3Cl)ccc2O1 [Example 86V, (S)-methyl 3-(6-(2-(2-chloro-6-fluorophenyl)prop-1-en-1-yl)-4-((6-chloroimidazo[2,1-b]thiazol-5-yl)sulfonyl)-3,4-dihydro-2H-benzo[b][1,4]oxazin-2-yl)propanoate] | < 500 | 500 to 5000 | 
5 | O=C(O)CC[C@H]1CN(S(=O)(=O)c2cccc(OC(F)F)c2)c2cc(/C=C/c3ccccc3C(F)(F)F)ccc2O1 [Example 89AO, (S,E)-3-(4-((3-(difluoromethoxy)phenyl)sulfonyl)-6-(2-(trifluoromethyl)styryl)-3,4-dihydro-2H-benzo[b][1,4]oxazin-2-yl)propanoic acid] | < 500 | 500 to 5000 | 
6 | COC(=O)CC[C@H]1CN(S(=O)(=O)c2cccc(C(C)C)c2)c2cc(/C=C(\C)c3c(F)cccc3Cl)ccc2O1 [Example 86R, (S,E)-methyl 3-(6-(2-(2-chloro-6-fluorophenyl)prop-1-en-1-yl)-4-((3-isopropylphenyl)sulfonyl)-3,4-dihydro-2H-benzo[b][1,4]oxazin-2-yl)propanoate] | < 500 | < 500 | 
7 | COC(=O)CC[C@H]1CN(S(=O)(=O)c2cccc(C(F)(F)F)c2)c2cc(/C=C(\C)c3c(C)noc3C)ccc2O1 [Example 86AD, (S,E)-methyl 3-(6-(2-(3,5-dimethylisoxazol-4-yl)prop-1-en-1-yl)-4-((3-(trifluoromethyl)-phenyl)sulfonyl)-3,4-dihydro-2H-benzo[b][1,4]oxazin-2-yl)-propanoate] | < 500 | 500 to 5000 | 
8 | N#CCC[C@H]1CN(S(=O)(=O)c2cccc(C(F)(F)F)c2)c2cc(CCc3c(F)cccc3Cl)ccc2O1 |  |  | EC50 (RORγ-LBD; [3]): < 500 nM; EC50 (Gal4-RORγ-LBD; [4]): < 500 nM
9 | CCn1cc(S(=O)(=O)N2C[C@H](CCNC(C)=O)Oc3ccc(/C=C(\C)c4c(F)cccc4Cl)cc32)c(Cl)n1 [Example 116E, (S,E)-N-(2-(4-((3-chloro-1-ethyl-1H-pyrazol-4-yl)sulfonyl)-6-(2-(2-chloro-6-fluorophenyl)-prop-1-en-1-yl)-3,4-dihydro-2H-benzo[b][1,4]oxazin-2-yl)ethyl)acetamide] |  |  | EC50 (RORγ-LBD; RORγ-LBD TR-FRET assay): < 500 nM; TR-FRET Assay Max Response (RORγ-LBD; RORγ-LBD TR-FRET assay): *** (a value in the range of greater than 150 to 200); EC50 (Gal4-RORγ-LBD; [1]): < 500 nM; Gal4-RORγ Assay Max Response (Gal4-RORγ-LBD; [1]): ** (a value in the range of greater than 90 to 150)
10 | CCOc1nn(CC)cc1S(=O)(=O)N1C[C@H](CCC(=O)O)Oc2ccc(/C=C/c3ccccc3F)cc21 [Example 89AM, (S,E)-3-(4-((3-ethoxy-1-ethyl-1H-pyrazol-4-yl)sulfonyl)-6-(2-fluorostyryl)-3,4-dihydro-2H-benzo[b][1,4]oxazin-2-yl)propanoic acid] | < 500 | > 10000 | 
11 | COC(=O)CC[C@H]1CN(S(=O)(=O)c2cc(Cl)cnc2OCCO)c2cc(/C=C/c3c(F)cccc3Cl)ccc2O1 [Example 89AK, methyl (S,E)-3-(4-((5-chloro-2-(2-hydroxyethoxy)pyridin-3-yl)sulfonyl)-6-(2-chloro-6-fluorostyryl)-3,4-dihydro-2H-benzo[b][1,4]oxazin-2-yl)propanoate] | < 500 | 500 to 5000 | 
12 | CC(C)(O[C@@H]1Cc2ccc(OCc3c(F)cccc3Cl)cc2N(S(=O)(=O)c2cccc(C(F)(F)F)c2)C1)C(=O)O [Example 172, (R)-2-((7-((2-Chloro-6-fluorobenzyl)oxy)-1-((3-(trifluoromethyl)phenyl)sulfonyl)-1,2,3,4-tetrahydroquinolin-3-yl)oxy)-2-methylpropanoic acid] |  |  | EC50 (RORγ-LBD; RORγ-LBD TR-FRET assay): < 500 nM; TR-FRET Assay Max Response (RORγ-LBD; RORγ-LBD TR-FRET assay): ** (a value in the range of greater than 90 to 150); EC50 (Gal4-RORγ-LBD; [1]): 500 to 5000 nM; Gal4-RORγ Assay Max Response (Gal4-RORγ-LBD; [1]): ** (a value in the range of greater than 90 to 150)
13 | COc1cc(S(=O)(=O)N2C[C@H](CNC(=O)[C@H]3CC[C@H](C(=O)O)CC3)Oc3ccc(/C=C(\C)c4c(F)cccc4Cl)cc32)ccc1F [Example 135C, (1S,4r)-4-((((S)-6-((E)-2-(2-chloro-6-fluoro-phenyl)prop-1-en-1-yl)-4-((4-fluoro-3-methoxy-phenyl)sulfonyl)-3,4-dihydro-2H-benzo[b][1,4]oxazin-2-yl)methyl)carbamoyl)-cyclohexane-1-carboxylic acid] |  |  | EC50 (RORγ-LBD; RORγ-LBD TR-FRET assay): < 500 nM; TR-FRET Assay Max Response (RORγ-LBD; RORγ-LBD TR-FRET assay): *** (a value in the range of greater than 150 to 200); EC50 (Gal4-RORγ-LBD; [1]): 500 to 5000 nM; Gal4-RORγ Assay Max Response (Gal4-RORγ-LBD; [1]): * (a value in the range of 30 to 90)
14 | COc1cc(S(=O)(=O)N2C[C@H](CCC(C)(C)O)Oc3ccc(/C=C(\C)c4c(F)cccc4Cl)cc32)ccc1F [Example 120, (S,E)-4-(6-(2-(2-Chloro-6-fluorophenyl)prop-1-en-1-yl)-4-((4-fluoro-3-methoxyphenyl)sulfonyl)-3,4-dihydro-2H-benzo[b][1,4]oxazin-2-yl)-2-methylbutan-2-ol] |  |  | EC50 (RORγ-LBD; RORγ-LBD TR-FRET assay): < 500 nM; TR-FRET Assay Max Response (RORγ-LBD; RORγ-LBD TR-FRET assay): *** (a value in the range of greater than 150 to 200); EC50 (Gal4-RORγ-LBD; [1]): < 500 nM; Gal4-RORγ Assay Max Response (Gal4-RORγ-LBD; [1]): ** (a value in the range of greater than 90 to 150)
15 | O=C(O)CC[C@H]1CN(S(=O)(=O)c2cccc(C(F)F)c2)c2cc(/C=C/c3c(Cl)cccc3C(F)(F)F)ccc2O1 [Example 82, (S,E)-3-(6-(2-Chloro-6-(trifluoromethyl)styryl)-4-((3-(difluoromethyl)phenyl)sulfonyl)-3,4-dihydro-2H-benzo[b][1,4]oxazin-2-yl)propanoic acid] | < 500 | < 500 | 
16 | CCn1cc(S(=O)(=O)N2C[C@H](CCC(=O)O)Oc3ccc(/C=C(\C)c4c(F)cccc4Cl)cc32)c(Cl)n1 [Example 86G, (S,E)-3-(4-((3-chloro-1-ethyl-1H-pyrazol-4-yl)sulfonyl)-6-(2-(2-chloro-6-fluorophenyl)prop-1-en-1-yl)-3,4-dihydro-2H-benzo[b][1,4]oxazin-2-yl)propanoic acid] | < 500 | 500 to 5000 | 
17 | CCOc1nn(CC)cc1S(=O)(=O)N1C[C@H](CCC(=O)OC)Oc2ccc(/C=C/c3cccs3)cc21 [Example 89P, (S,E)-methyl 3-(4-((3-ethoxy-1-ethyl-1H-pyrazol-4-yl)sulfonyl)-6-(2-(thiophen-2-yl)vinyl)-3,4-dihydro-2H-benzo[b][1,4]oxazin-2-yl)propanoate] | 500 to 5000 | > 10000 | 
18 | CCOC(=O)C1Cc2ccc(CCc3c(F)cccc3Cl)cc2N(S(=O)(=O)c2cccc(C(F)(F)F)c2)C1 (centres unmarked) |  |  | EC50 (RORγ-LBD; [3]): < 500 nM; EC50 (Gal4-RORγ-LBD; [4]): < 500 nM

Now from value to compound, other results behind:

Row | EC50 (RORγ-LBD; RORγ-LBD TR-FRET) [nM] | EC50 (Gal4-RORγ-LBD; [2]) [nM] | Compound | also measured
19 | < 500 | 500 to 5000 | CC1(C)CCC(=Cc2ccc3c(c2)N(S(=O)(=O)c2cc(C(F)(F)F)cnc2OCCO)C[C@H](CCC(=O)O)O3)CC1 [Example 95W, (S)-3-(6-((4,4-dimethyl-cyclohexylidene)methyl)-4-((2-(2-hydroxyethoxy)-5-(trifluoromethyl)pyridin-3-yl)sulfonyl)-3,4-dihydro-2H-benzo[b][1,4]oxazin-2-yl)propanoic acid] | 
20 | < 500 | 500 to 5000 | CC1CCC(=Cc2ccc3c(c2)N(S(=O)(=O)c2cccc(C(F)(F)F)c2)C[C@H](CCC(=O)O)O3)CC1 (stereo partly drawn) [Example 95K, 3-((2S)-6-((4-methylcyclo-hexylidene)methyl)-4-((3-(trifluoromethyl)phenyl)sulfonyl)-3,4-dihydro-2H-benzo[b][1,4]oxazin-2-yl)propanoic acid] | 
